We go through three compounds from patent publication US20260183303A1, “PDK1 REGULATORY COMPOUND AND COMPOSITION CONTAINING THE SAME” (PROVIBIO CO., LTD., priority 2024, published 2026).

Each structure is given as a SMILES string.

The target of experiment [1] is T1, PDK1 (phosphoinositide-dependent kinase 1) phosphorylation (Homo sapiens, UniProt O15530).
T1 construct: endogenous in cells; host or cells: SU-DHL-8 (ATCC CRL-2961)
T1 sequence (O15530 1-556): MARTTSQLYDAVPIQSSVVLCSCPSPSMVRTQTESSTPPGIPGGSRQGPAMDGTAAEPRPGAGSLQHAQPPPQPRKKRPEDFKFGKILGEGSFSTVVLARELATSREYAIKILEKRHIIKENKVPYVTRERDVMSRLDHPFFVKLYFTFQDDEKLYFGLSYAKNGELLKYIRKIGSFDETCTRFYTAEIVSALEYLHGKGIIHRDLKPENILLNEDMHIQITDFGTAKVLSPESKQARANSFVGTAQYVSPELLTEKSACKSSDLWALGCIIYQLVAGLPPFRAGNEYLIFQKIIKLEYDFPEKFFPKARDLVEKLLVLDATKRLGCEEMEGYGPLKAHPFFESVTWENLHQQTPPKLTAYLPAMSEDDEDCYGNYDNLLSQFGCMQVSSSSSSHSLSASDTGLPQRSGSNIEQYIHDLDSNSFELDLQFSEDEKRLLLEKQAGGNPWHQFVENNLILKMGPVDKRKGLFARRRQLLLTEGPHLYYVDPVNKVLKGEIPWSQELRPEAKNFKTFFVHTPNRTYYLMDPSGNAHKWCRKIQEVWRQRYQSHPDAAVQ
As to the kind of experiment: PDK1 phosphorylation (pPDK1-PE) by flow cytometry in SU-DHL-8 cells. It is filed as cell-based. The following applies: 24 hours, compared to the control group. The method, then: After stabilizing the cells, the compound of the present invention was added, and the cells were cultured for 24 hours.
After drug treatment, the cells were harvested, and the Fc receptor blocking process was performed. The cells were then fixed and permeabilized using the Intracellular Staining Kit (Cat. No. BD554715) from BD Biosciences. Subsequently, the intracellular pPDK1 was stained using the pPDK1-PE fluorescently labeled antibody (BD Biosciences).
Referring to the figure, the vertical axis represents the phosphorylation level of PDK1 (phospho-PDK1 expression level), and the horizontal axis denotes the concentration-dependent treatment conditions of each compound.

Experiment [2] concerns MRL/lpr mice with hair loss symptoms in the facial region. Kind of experiment: Hair loss treatment and hair follicle Ki-67 IHC in MRL/lpr mice. The class given is in vivo. The note with it: 41-week-old female MRL/lpr mice; GO15F (30 mg/kg), G048 (1 mg/kg), G088 (0.5 mg/kg) intraperitoneally once daily. The method, then: Additionally, in 41-week-old female MRL/lpr mice, the compounds GO15F (30 mg/kg), G048 (1 mg/kg), and G088 (0.5 mg/kg) were administered intraperitoneally once daily.
To confirm the proliferative activity of hair follicle cells in the skin tissue of these mice, the mice were sacrificed 14 days after administration of the compounds of the present invention, and Ki-67 immunohistochemistry […] was performed.
For this purpose, the excised skin tissue was fixed in formalin, embedded in paraffin blocks, and stained with a Ki-67-specific antibody on tissue sections prepared as slides.

For experiment [3], the system named is MRL/MpJ-Faslpr/J (MRL/lpr) lupus animal model. As to the kind of experiment: Systemic lupus erythematosus model, MRL/lpr mice. It is filed as in vivo. The text has this: The MRL/MpJ-Faslpr/J (hereinafter referred to as “MRL/lpr”) used in this experiment is one of the representative animal models for systemic lupus erythematosus (SLE), known to produce various autoantibodies, including antinuclear antibodies, due to the lpr (lymphoproliferation) gene.
Generally, female MRL/lpr develop systemic lupus erythematosus around 12 weeks of age, and approximately 50% of the animals die by 30 weeks of age.
In this invention, the period up to 9 weeks of age was considered the pre-disease stage, and the period after 23 weeks of age was considered the post-disease stage, and efficacy verification experiments using this model were conducted.
To obtain experimental animals, female MRL/lpr mice aged 6 weeks were imported from The Jackson Laboratory, and MRL/lpr mice were imported from The Jackson Laboratory and acclimatized for one week in an SPF (Specific Pathogen Free) facility maintained at a temperature of 21-24° C., humidity of 40-60%, and a 12-hour light-dark cycle (lights on at 7:00 AM, lights off at 7:00 PM).
Subsequently, female and male MRL/lpr mice were mated at a ratio of 2:1 in the same facility, and the female offspring were administered the compound G015F of the present invention or vehicle at a dose of 30 mg/kg once daily via intraperitoneal injection or oral administration from the age of 10 weeks until 23 weeks of age.
Urine samples were collected once a week from each individual and used for analytical experiments.
At 23 weeks of age, necropsy was performed on each MRL/lpr mouse, and serum, kidneys, and spleens were isolated and used for analytical experiments.
The protein concentration in urine collected weekly from the control group or experimental group was analyzed using ‘Quick Start™ Bradford 1× Dye Reagent (Bio-Rad, Cat. #5000205).’
In each well of a 96-well plate, 5 μl of urine sample diluted with triple-distilled water and 250 μl of 1× dye reagent were added, reacted, and the absorbance was measured at 595 nm.
The concentration of anti-nuclear antibodies (Anti-dsDNA Ab) was measured using the ‘Mouse Anti-dsDNA IgG ELISA Kit (Alpha Diagnostic International, Cat. #5120)’ on serum isolated at the time of necropsy in the lupus animal model.
Each mouse serum was diluted to a final concentration of 1/5000 with Working Sample Diluent (WSD) and Low NSB Sample Diluent (LNSD), followed by adding 100 μl of the diluted serum to wells coated with anti-dsDNA and incubating at room temperature for 60 minutes.
The wells were then washed four times with 200 μl of washing buffer, followed by the addition of 100 μl of Anti-Mouse IgG-HRP antibody, and the mixture was incubated at room temperature for 30 minutes.
Each well was washed four times with 200 μl of washing buffer, and 100 μl of 3,3′,5,5′-Tetramethylbenzidine (TMB) substrate solution was added to each well.
The degree of color change to blue in the wells containing the standard solution was checked, and after 15 minutes, 100 μl of stop solution was added to terminate the reaction.
After the reaction was complete, the optical density (OD) was measured at 450 nm. […]
After that, each well was washed twice with 400 μl of washing solution, and 100 μl of TMB substrate solution was added to each well.
The degree of color change to blue in the wells containing the standard solution was checked, and after 15 minutes, 100 μl of stop solution was added to stop the reaction.
To investigate the effect of G015F administration on changes in the ratio of immune cells in the spleen of a lupus animal model, the spleens of mice administered each compound were excised, cells were extracted, and the cells were suspended in MACS buffer (autoMACS Washing Solution, Miltenyi Biotec., Cat. #130-092-987).
For flow cytometry analysis, FACS tubes (5 mL round tubes, Falcon, Cat. #352052)were used. […]

Experiment [4] concerns bleomycin-induced pulmonary fibrosis mice. Kind of experiment: Pulmonary fibrosis model induced by bleomycin intratracheal administration. The class given is in vivo, Balb/c mice. The following applies: BLM mice, vs BLM-treated group. The text has this:
To evaluate the therapeutic efficacy of the compound according to the present invention against pulmonary fibrosis, an animal model of pulmonary fibrosis induced by bleomycin intratracheal administration was established.
For this purpose, 8-week-old male Balb/c mice were subjected to general anesthesia using an inhalation anesthetic (2-3% isoflurane in oxygen), followed by disinfection of the neck region, skin incision, and exposure of the trachea.
Bleomycin (Sigma-Aldrich, USA)was directly administered into the trachea at a concentration of 5 mg/kg in a solution of […].
Two days prior to Bleomycin administration, the compound of the present invention or the comparative drug was administered intraperitoneally at the specified concentration and dose, and the administration was continued once daily for a total of 14 days.
The experimental groups included Normal, Bleomycin alone (BLM), and BLM plus the compound of the present invention (BLM+G088, 0.2 mg/kg).
Ten days later, the mice were euthanized humanely using carbon dioxide gas, the trachea was incised, and PBS was injected into the trachea to remove blood from the lungs.
The lung tissue washed with PBS was excised, fixed in 4% paraformaldehyde solution for 24 hours, and then paraffin blocks and tissue sections were prepared. The prepared sections were subjected to pathological analysis using H&E, Masson's trichrome, and Sirius red staining.
Additionally, immunohistochemical (IHC) staining was performed for α-SMA (α-smooth muscle actin), an indicator of lung fibroblast activation.

The target of experiment [5] is T2, full-length PDK1 (PDK1-FL) (Homo sapiens, UniProt O15530).
T2 construct: full-length (PDK1-FL) protein of human-derived PDK1; made in house; host or cells: Sf9 insect cells, baculovirus
T2 sequence (O15530 1-556): T1 sequence (O15530 1-556)
As to the kind of experiment: Binding affinity by Microscale Thermophoresis (MST), full-length PDK1. The following applies: ratio of Kd values. The method, then: Experimental Example 16: Binding affinity experiment with PDK1 using MST Microscale Thermophoresis (MST) analysis was performed to quantitatively measure the binding affinity between PDK1 protein and substrate peptides (PDKTide) or the company-developed low-molecular-weight compound (GO88).
The target proteins were the full-length (PDK1-FL) protein of human-derived PDK1 and the Protein Kinase Domain (PKD) fragment, which were expressed using a baculovirus expression system in insect cell lines (Sf9).
The purity of the purified proteins was confirmed by SDS-PAGE and Coomassie Brilliant Blue staining.
The purified protein was labeled with a fluorescent label using the Monolith NT™ RED-NHS Protein Fluorescent Labeling Kit (NanoTemper).
Specifically, 20 μM of the protein was dissolved in PBS (pH 7.4) buffer, mixed with the fluorescent reagent, and reacted at room temperature under dark conditions for 30 minutes. The mixture was then buffered with MST analysis buffer (50 mM HEPES, 150 mM NaCl, 1 mM DTT, 0.05% Tween-20, pH 7.5). […]
The reaction samples were injected into an MST-specific capillary (NanoTemper) and analyzed using a Monolith NT.115 device (NanoTemper) under laser intensity conditions. […]
The measured data were analyzed using MO.Affinity Analysis software (NanoTemper), and the dissociation constant (Kd) was calculated from the binding curve.
For orientation: In MST a laser heats a spot of the sample, and binding alters the fluorescence response.

Experiment [6] concerns human lung fibroblasts MRC-5 cell lines. As to the kind of experiment: Collagen I Western blot in TGF-β treated MRC-5 cells. The following applies: MRC-5, TGF-β (5 ng/ml), G088 0.5 μM and 1 M (so in the source), 24 hours. It is filed as cell-based. The method, then: To confirm that the compound of the present invention directly acts on fibrosis-related mechanisms, in vitro experiments were performed using human lung fibroblasts MRC-5 cell lines (Korea Cell Bank).
First, MRC-5 cells were seeded at 5×10^3 cells per well in a 6-well plate and stabilized for 24 hours.
Subsequently, experimental groups were established, including a control group, a group treated with TGF-β (5 ng/ml) alone, and groups treated with TGF-β and the compound G088 from the present invention at concentrations of 0.5 μM and […], respectively.
After treating each group with the drugs for 24 hours, the cell medium was removed, and the cells were washed twice with cold PBS. Then, RIPA lysis buffer containing phosphatase inhibitor and protease inhibitor was added to each group to extract proteins.
The extracted proteins were incubated at 4° C. for 30 minutes, then centrifuged at 13,000 rpm for 15 minutes, and the supernatant was collected. The total protein concentration was measured using the BCA protein quantification method.
Subsequently, the proteins were separated by SDS-PAGE, transferred to a PVDF membrane, and Western blot analysis was performed.
The expression levels of Collagen I, a marker related to pulmonary fibrosis, were confirmed, with GAPDH used as an internal control.
A general note: A western blot detects proteins with antibodies after separation by electrophoresis.

[7] abbreviates: serum at necropsy (23 weeks), ELISA.

`Nc1ncccc1C(=O)NCCCCCCCCCCCCN1CCOCC1` [Compound 2, 2-Amino-N-(12-morpholin-4-yl-dodecyl)-nicotinamide]: the “phospho-PDK1 expression level (inhibition of PDK1 phosphorylation)” value in experiment [1] is “stronger PDK1 inhibition”. In experiment [2], the “hair growth on the facial region” value was “hair growth was confirmed”.
Take `Nc1ncccc1C(=O)NCCCCCCCCCCCCF` [Compound G015F]: the “phospho-PDK1 expression level (inhibition of PDK1 phosphorylation)” value in experiment [1] was “inhibitory effect on PDK1 phosphorylation”. Moreover, in experiment [3] (30 mg/kg once daily, weekly urine, Bradford), the “protein concentration in urine” value is given as “significantly lower”. The “renal pathological tissue staining (glomeruli)” value in experiment [3] (H&E, PAS, Masson trichrome) is given as “glomerular capillary loops were well maintained”. Moreover, the “B cells, T cells and macrophages in the spleen” value in experiment [3] (flow cytometry (B220, CD3, CD11b/F4/80)) is “reduced the increased B cells, T cells, and macrophages”. Moreover, the “IgG deposition in kidney tissue” value in experiment [3] (immunofluorescence staining) is recorded as “significantly lower”. In addition, in experiment [3] (setting [7]), the “concentration of anti-dsDNA IgG in the blood” value is reported as “significantly lower” and the “total IgG concentration in the blood” value was “significantly lower”. Moreover, in experiment [4], the “collagen deposition (Masson's trichrome, Sirius red)” value is listed as “significantly reduced” and the “expression of α-SMA in lung tissue (IHC)” value is reported as “significantly suppressed”.
As for `Nc1ncccc1C(=O)NCCCCCCCCCCCCN1CCNCC1` [Compound G088], in experiment [1], the “phospho-PDK1 expression level (inhibition of PDK1 phosphorylation)” value was “stronger PDK1 inhibition”. In addition, the “binding affinity of full-length PDK1 compared to the PDK fragment” value in experiment [5] is “six times stronger”. Also, in experiment [6], the “protein expression of Collagen I” value is given as “inhibited in a concentration-dependent manner”. The “hair growth on the facial region” value in experiment [2] is “hair growth was confirmed”. Further, in experiment [4], the “collagen deposition (Masson's trichrome, Sirius red)” value was “significantly reduced” and the “expression of α-SMA in lung tissue (IHC)” value is “significantly suppressed”.
